Values belong to the compound of their own block, whether it stands above or below them.
Experiments:
[1] = molecular target: Tyrosine-protein kinase Fes/Fps (Homo sapiens) (UniProt P07332); test: Inhibition of FES (unknown origin) at 0.45 uM relative to control
[2] = molecular target: Epidermal growth factor receptor (Homo sapiens) (UniProt P00533); test: Inhibition of EGFR (unknown origin) at 0.45 uM relative to control
[3] = molecular target: Casein kinase I isoform delta (Homo sapiens) (UniProt P48730); test: Inhibition of CK1-delta (unknown origin) at 0.164 uM relative to control
[4] = molecular target: NT-3 growth factor receptor (Homo sapiens) (UniProt Q16288); test: Inhibition of TRKC (unknown origin) at 0.164 uM relative to control
[5] = molecular target: Protein kinase C beta type (Homo sapiens) (UniProt P05771); test: Inhibition of PKC-beta2 (unknown origin) at 0.164 uM relative to control
[6] = molecular target: Tyrosine-protein kinase receptor TYRO3 (Homo sapiens) (UniProt Q06418); test: Inhibition of TYRO3 (unknown origin) at 0.164 uM relative to control
[7] = molecular target: Macrophage colony-stimulating factor 1 receptor (Homo sapiens) (UniProt P07333); test: Inhibition of FMS (unknown origin) at 0.164 uM relative to control
[8] = molecular target: MAP kinase-activated protein kinase 3 (Homo sapiens) (UniProt Q16644); test: Inhibition of MAPKAPK3 (unknown origin) at 0.164 uM relative to control
[9] = tested on: Mitogen-activated protein kinase 14 (Homo sapiens), Q16539 [T106M]; test: Inhibition of SAPK2a T106M mutant (unknown origin) at 0.164 uM relative to control
[10] = molecular target: High affinity nerve growth factor receptor (Homo sapiens) (UniProt P04629); test: Inhibition of TRKA (unknown origin) at 0.164 uM relative to control
[11] = molecular target: BDNF/NT-3 growth factors receptor (Homo sapiens) (UniProt Q16620); test: Inhibition of NTRK2 (unknown origin) at 0.164 uM relative to control
[12] = molecular target: Ephrin type-A receptor 4 (Homo sapiens) (UniProt P54764); test: Inhibition of EPHA4 (unknown origin) at 0.164 uM relative to control
[13] = molecular target: T1, Protein kinase C iota type (Homo sapiens) (UniProt P41743); test: Inhibition of PKC-iota (unknown origin) at 0.164 uM relative to control
T1 sequence (whole entry): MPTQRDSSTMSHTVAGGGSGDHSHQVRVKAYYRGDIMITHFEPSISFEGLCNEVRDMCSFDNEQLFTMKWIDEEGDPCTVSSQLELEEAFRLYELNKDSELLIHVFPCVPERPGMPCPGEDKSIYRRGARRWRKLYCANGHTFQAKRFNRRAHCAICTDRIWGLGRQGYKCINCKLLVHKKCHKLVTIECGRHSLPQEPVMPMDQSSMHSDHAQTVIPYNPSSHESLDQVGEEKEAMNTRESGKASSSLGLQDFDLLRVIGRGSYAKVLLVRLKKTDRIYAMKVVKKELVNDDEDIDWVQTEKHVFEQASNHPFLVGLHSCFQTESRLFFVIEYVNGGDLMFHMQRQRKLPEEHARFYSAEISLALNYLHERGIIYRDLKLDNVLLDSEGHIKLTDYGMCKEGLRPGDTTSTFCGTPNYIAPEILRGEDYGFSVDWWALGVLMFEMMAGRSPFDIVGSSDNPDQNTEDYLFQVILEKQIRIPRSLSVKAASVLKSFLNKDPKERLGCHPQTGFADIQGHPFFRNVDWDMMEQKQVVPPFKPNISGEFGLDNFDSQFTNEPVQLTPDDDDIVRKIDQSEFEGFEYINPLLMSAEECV

[14] = molecular target: Mitogen-activated protein kinase 3 (Homo sapiens) (UniProt P27361); test: Inhibition of Erk1 (unknown origin) at 0.164 uM relative to control
[15] = molecular target: MAP kinase-activated protein kinase 2 (Homo sapiens) (UniProt P49137); test: Inhibition of MAPKAPK2 (unknown origin) at 0.164 uM relative to control
[16] = molecular target: MAP/microtubule affinity-regulating kinase 4 (Homo sapiens) (UniProt Q96L34); test: Inhibition of MARK4 (unknown origin) at 0.164 uM relative to control
[17] = molecular target: Tyrosine-protein kinase Mer (Homo sapiens) (UniProt Q12866); test: Inhibition of Mer (unknown origin) at 0.164 uM relative to control
[18] = molecular target: Receptor-type tyrosine-protein kinase FLT3 (Homo sapiens) (UniProt P36888); test: Inhibition of FLT3 (unknown origin) at 0.19 uM relative to control
[19] = molecular target: Aurora kinase A (Homo sapiens) (UniProt O14965); test: Inhibition of AurA (unknown origin) at 0.19 uM relative to control
[20] = molecular target: Tyrosine-protein kinase ABL2 (Homo sapiens) (UniProt P42684); test: Inhibition of Arg (unknown origin) at 0.19 uM relative to control
[21] = molecular target: Serine/threonine-protein kinase D3 (Homo sapiens) (UniProt O94806); test: Inhibition of PKD3 (unknown origin) at 0.19 uM relative to control
[22] = molecular target: Calcium/calmodulin-dependent protein kinase type 1D (Homo sapiens) (UniProt Q8IU85); test: Inhibition of CamK1d (unknown origin) at 0.19 uM relative to control
[23] = molecular target: Insulin receptor (Homo sapiens) (UniProt P06213); test: Inhibition of INSR (unknown origin) at 0.19 uM relative to control
[24] = molecular target: Tyrosine-protein kinase Lck (Homo sapiens) (UniProt P06239); test: Inhibition of LCK (unknown origin) at 0.19 uM relative to control
[25] = molecular target: Fibroblast growth factor receptor 2 (Homo sapiens) (UniProt P21802); test: Inhibition of FGFR2 (unknown origin) at 0.19 uM relative to control
[26] = molecular target: Ribosomal protein S6 kinase alpha-6 (Homo sapiens) (UniProt Q9UK32); test: Inhibition of RSK4 (unknown origin) at 0.19 uM relative to control
[27] = molecular target: High affinity nerve growth factor receptor (Homo sapiens) (UniProt P04629); test: Inhibition of TRKA (unknown origin) at 0.19 uM relative to control
[28] = molecular target: Ribosomal protein S6 kinase (Homo sapiens) (UniProt P51812+Q9UBS0+O75676+Q15349+O75582+P23443+Q9UK32+Q15418); test: Inhibition of p70S6K (unknown origin) at 0.19 uM relative to control; format: protein assay
[29] = tested on: Receptor-type tyrosine-protein kinase FLT3 (Homo sapiens), P36888 [D835Y]; test: Inhibition of Flt3 D835Y mutant (unknown origin) at 0.19 uM relative to control
[30] = molecular target: RAC-gamma serine/threonine-protein kinase (Homo sapiens) (UniProt Q9Y243); test: Inhibition of AKT3 (unknown origin) at 0.19 uM relative to control
[31] = molecular target: MAP kinase-interacting serine/threonine-protein kinase 1 (Homo sapiens) (UniProt Q9BUB5); test: Inhibition of MNK1 (unknown origin) at 0.19 uM relative to control
[32] = molecular target: Epidermal growth factor receptor (Homo sapiens) (UniProt P00533); test: Inhibition of EGFR (unknown origin) at 0.19 uM relative to control

inhibition [1]: -3.3%
inhibition [2]: -6%
Compound: Cc1n[nH]c(C)c1-c1ccc2c(NC(=O)c3ccc(N4CCN(C)CC4)cc3)n[nH]c2c1

inhibition [3]: 4.7%
inhibition [4]: 7.3%
inhibition [5]: 5.7%
inhibition [6]: 7.7%
inhibition [7]: -0.7%
inhibition [8]: 6.3%
inhibition [9]: 0.7%
inhibition [10]: 1.3%
inhibition [11]: 4%
inhibition [12]: -2.3%
inhibition [13]: -2.3%
inhibition [14]: 7%
inhibition [15]: 7%
inhibition [16]: 7.3%
inhibition [17]: 6%
Compound: COC(=O)Nc1cc(-c2c(C3CC3)n[nH]c2C)cc2[nH]ncc12

inhibition [18]: 77.3%
inhibition [19]: 3.3%
inhibition [20]: 57%
inhibition [21]: 4.7%
inhibition [22]: -1.7%
inhibition [23]: 1.7%
inhibition [24]: 26.7%
inhibition [25]: 4%
inhibition [26]: -2%
inhibition [27]: 37.7%
inhibition [28]: 5.7%
inhibition [29]: 93.7%
inhibition [30]: 0.7%
inhibition [31]: -1%
inhibition [32]: -6.7%
Compound: Cc1[nH]nc(C2CC2)c1-c1ccc2c(-c3ccc(N4CCN(C)CC4)nc3)n[nH]c2c1

Reference: ChEMBL document CHEMBL4118098, “Discovery of DS28120313 as a potent orally active hepcidin production inhibitor: Design and optimization of novel 4,6-disubstituted indazole derivatives” (Bioorg Med Chem Lett, 2017)
